The values below are quoted from earlier work in patent US20060286164A1 (priority 2004, published 2006).

Assay in series [1]: not given
This is another data set of the same source.

For another series, the system named is mouse. The settings on record: in vivo, po.
For a further series, the system named is Guinea Pig. The settings on record: in vivo, po.
For series [2] the following is noted: set by WHO from metabolic and toxicological data.

“Also recorded” adds a separate entry of the source. Read-outs that look alike come from different tables or passages of the source.

Consider `CC(C)Cc1ccc(C(C)C(=O)O)cc1` (racemic) [Ibuprofen, 2-(4-Isobutylphenyl)Propionic acid], for which the solubility in water entry is listed as “practically insoluble; also recorded: not soluble”. Take `CC(C)Cc1ccc([C@H](C)C(=O)O)cc1` [(S)-(+)-Ibuprofen]: the solubility in water entry is “not soluble”.

As a reminder, the LD50 is the dose expected to kill half of the subjects tested. In the case of `CCO` [Ethanol, Ethyl alcohol], in series [1] (chloroform, ether, glycerin and water), the miscibility result is given as “miscible”. Moreover, the LD50 is 7500 mg/kg with mouse and 5560 mg/kg with Guinea Pig. As to `CCCCCCCC/C=C\CCCCCCCC(=O)O` [Oleic acid, (Z)-9-Octadecenoic acid], in the series on rat (IV), the 50% lethal dose (LD50) is 2.4 mg/kg. For `CCOCCOCCO` [Transcutol, Diethylene glycol monoethyl ether], the solubility in water entry is recorded as “soluble”. Also, in series [1] (ethanol, hexylene glycol and propylene glycol), the solubility result is listed as “soluble”. For the same compound, in series [1] (vegetable oil), the solubility result is “partially soluble”. In addition, the 50% lethal dose (LD50) in the series with rat (in vivo, po) was 7.5 mg/kg. Turning to `CC(O)CO` (stereo not shown) [propylene glycol, Propylene glycol], the acceptable daily intake result in series [2] is listed as “up to 25 mg/kg body weight”. For Vitamin E, the solubility in water entry is on record as “practically insoluble”. The solubility entry in series [1] (acetone, ethanol, ether and vegetable oil) is listed as “freely soluble”.
